Assay results from patent publication EP4667468A1, “COMPOUND FOR INHIBITING NLRP3, PREPARATION METHOD, AND USE” (Shenzhen Zhongge Biological Technology Co., Ltd., priority 2023, dated 2024).

test system: not listed separately; assay: Liver microsome metabolic stability, mouse; assay type: in vitro ADME, mice; details: mouse (m) liver microsomes 0.5 mg/ml, 45 min; read-out: LMS (h,r,m) (% rem, 45 min)
Protocol: (§1) Purpose: This experiment investigates the metabolic stability of the compound in liver microsomes of different species such as humans, mice and rats, and the residual content of the test compound after incubation with liver microsomes of different species such as humans, mice and rats.
(§2) Preparation of 500 µM solution of target compound and positive control: 5 µL of each 10 mM stock solution was taken, added to 95 µL acetonitrile, and mixed for 30 s;
(§3) Preparation of 6 mM NADPH solution: 100 mM Stock aliquot liquid was diluted with Mg-Mg-K-Buffer.
(§4) • 2.1.1 Liver microsome solution: 18.75 µL of 20 mg/mL HLM, RLM, MLM, DLM, MOLM (final concentration: 0.5 mg/ml) were taken and placed them in each well of a 96-well plate; • 2.1.2 1.5 µL of 500 µM solution of each compound was added respectively; • 2.1.3 479.8 µL of phosphate buffer was taken, then added to each compound well, and mixed at 1000 rpm in an oscillating mixer for 10 s.
(§5) 30 µL of the above samples were taken and aliquoted to a new 96-well plates respectively (including NADPH group, n=2, and no NADPH group at 0 and 45 min, n=1), marked as 0, 5, 15, 30 and 45 min; […]
(§6) The slope was calculated based on the LN value of the compound concentration percentage and time as the coordinate axis, and the residual content of the compound after incubation with liver microsomes was calculated based on the slope and formula. […]

Row | Compound | remaining at 0.75 h, 1 µM
1 | CC(=O)N1CCOC[C@H]1CNc1nc2nc(-c3c(C)cc(C(F)(F)F)cc3O)ccc2o1 [Compound 111] | 91.3%

test system: not listed separately; assay: Liver microsome metabolic stability, human; assay type: in vitro ADME, humans; details: human (h) liver microsomes 0.5 mg/ml, 45 min; read-out: LMS (h,r,m) (% rem, 45 min)
Protocol: as §1, §2, §3, §4, §5, §6

Row | Compound | remaining at 0.75 h, 1 µM
2 | CC(=O)N1CCOC[C@H]1CNc1nc2nc(-c3c(C)cc(C(F)(F)F)cc3O)ccc2o1 [Compound 111] | 93.2%

test system: not listed separately; assay: Liver microsome metabolic stability, rat; assay type: in vitro ADME, rats; details: rat (r) liver microsomes 0.5 mg/ml, 45 min; read-out: LMS (h,r,m) (% rem, 45 min)
Protocol: as §1, §2, §3, §4, §5, §6

Row | Compound | remaining at 0.75 h, 1 µM
3 | CC(=O)N1CCOC[C@H]1CNc1nc2nc(-c3c(C)cc(C(F)(F)F)cc3O)ccc2o1 [Compound 111] | 82.5%

molecular target: IL-1β secretion of THP-1 cells (Homo sapiens, UniProt Q96P20); assay: Effect of NLRP3 inhibitor on IL-1β secretion of THP-1 cells (AlphaLISA); assay type: cell-based; details: PMA 50nM, LPS 100ng/ml, Nigericin 10µM, IL-1β in supernatant
Sequence (Q96P20 whole entry): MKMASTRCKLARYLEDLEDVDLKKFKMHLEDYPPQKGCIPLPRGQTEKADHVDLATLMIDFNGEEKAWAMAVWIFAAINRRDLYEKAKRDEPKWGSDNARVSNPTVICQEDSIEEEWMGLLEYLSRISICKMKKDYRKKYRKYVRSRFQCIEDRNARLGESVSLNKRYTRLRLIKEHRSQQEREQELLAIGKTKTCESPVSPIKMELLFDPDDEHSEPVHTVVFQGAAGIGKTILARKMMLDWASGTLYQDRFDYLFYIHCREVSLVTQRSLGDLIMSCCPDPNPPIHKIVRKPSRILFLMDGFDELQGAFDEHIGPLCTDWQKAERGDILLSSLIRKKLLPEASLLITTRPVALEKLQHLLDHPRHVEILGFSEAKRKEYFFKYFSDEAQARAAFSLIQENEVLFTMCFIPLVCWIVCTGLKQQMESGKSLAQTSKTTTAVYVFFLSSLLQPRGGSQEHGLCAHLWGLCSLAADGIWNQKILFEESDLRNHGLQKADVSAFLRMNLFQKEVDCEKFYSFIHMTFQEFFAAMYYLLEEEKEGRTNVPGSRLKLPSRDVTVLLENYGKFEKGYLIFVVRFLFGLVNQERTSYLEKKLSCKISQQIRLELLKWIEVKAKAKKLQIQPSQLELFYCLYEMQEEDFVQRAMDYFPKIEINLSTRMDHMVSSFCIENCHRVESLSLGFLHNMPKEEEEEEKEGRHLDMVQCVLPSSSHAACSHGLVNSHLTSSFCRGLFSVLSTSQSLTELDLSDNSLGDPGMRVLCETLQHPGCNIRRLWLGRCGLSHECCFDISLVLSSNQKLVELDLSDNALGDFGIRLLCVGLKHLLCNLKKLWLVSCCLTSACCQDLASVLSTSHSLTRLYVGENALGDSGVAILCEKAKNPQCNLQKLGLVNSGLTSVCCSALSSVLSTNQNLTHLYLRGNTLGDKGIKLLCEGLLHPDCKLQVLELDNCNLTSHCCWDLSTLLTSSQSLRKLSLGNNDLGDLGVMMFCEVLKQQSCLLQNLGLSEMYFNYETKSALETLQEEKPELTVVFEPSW
Protocol: This experiment used the PerkinElmer AlphaLISA_human_IL1β kit (AL220 C/F). The detection buffer was RPMI-1640+10FBS. AlphaLISA Immunoassay Buffer, AlphaLISA Anti-IL1β Acceptor beads, Streptavidin (SA)-coated Donor beads, and Biotinylated Antibody Anti-IL1β were all included in the kit.
The density of THP1 cells was adjusted to 4×10^5 cells/mL, PMA (final concentration 50nM) was added, inoculated into 96-well flat-bottom plates at 200µL/well, and stimulated overnight at 37°C, 5% CO2 (try to <16h). The next day, the supernatant was discarded, and the flat washed twice with DPBS (200µL/time). Then LPS solution (final concentration of 100ng/ml) was added at 198µL/well , incubated at 37°C, 5% CO2 for 3h. 1µL of the corresponding concentration of compounds was added to each well according to the experimental MAP, incubated at 37°C, 5% CO2 for 1h. 1µL Nigericin (final concentration of 10µM) was added to each well, incubated overnight at 5% CO2 (>18h). On the third day, 5µL of supernatant was taken, diluted 20 times, and the content of IL-Iβ in the supernatant was detected by Human Interleukin 1 beta (IL1β) Kit. Envision was used to read the AlphaLISA test value of Ex = 680/ Em = […]. GraphPad Prism 9.5.0 was used to analyze the data, and the IC50 value of the compound for IL-Iβ antagonism was fitted by four-parameter Logistic. […] Table 2: Results of IC50 experiments using THP-1 cells to detect NLRP3 inhibitors

Row | Compound | IC50
4 | CCN1CCC[C@@H](n2ccc3cc(-c4c(C)cc(C(F)(F)F)cc4O)nnc32)C1 [11-a] | < 50 nM
5 | CCN1CCC[C@@H](N2CC(=O)Nc3cc(-c4c(C)cc(C(F)(F)F)cc4O)nnc32)C1 [12-a] | < 50 nM
6 | Cc1cc(C(F)(F)F)cc(O)c1-c1ccc2[nH]c(NCC(C)(C)O)nc2n1 [Compound 6] | 100 to 500 nM
7 | Cc1cc(C(F)(F)F)cc(O)c1-c1ccc2oc(N3CCOC[C@H]3C)nc2n1 [compound 371] | 50 to 100 nM
8 | Oc1cc(Cl)cc(O)c1-c1ccc2oc(N3CCOCC3)nc2n1 [compound 376] | < 50 nM
9 | Cc1cc(C(F)(F)F)cc(O)c1-c1ccc2oc(N3CC4CCC(C3)O4)nc2n1 [compound 381] | 100 to 500 nM
10 | Cc1cc(C(F)(F)F)cc(O)c1-c1ccc2oc(N3CCS(=O)(=O)CC3)nc2n1 [compound 384] | < 50 nM
11 | Cc1cc(Cl)cc(O)c1-c1ccc2oc(N3CCS(=O)(=O)CC3)nc2n1 [compound 387] | 50 to 100 nM
12 | CCS(=O)(=O)N1CCN(c2nc3nc(-c4c(C)cc(C(F)(F)F)cc4O)ccc3o2)CC1 [compound 388] | 50 to 100 nM
13 | Cc1cc(C(F)(F)F)cc(O)c1-c1ccc2oc(N3CCN(S(C)(=O)=O)CC3)nc2n1 [compound 390] | < 50 nM
14 | Cc1cc(C(F)(F)F)cc(O)c1-c1ccc2oc(N3CCN(S(=O)(=O)C4CC4)CC3)nc2n1 [compound 392] | < 50 nM
15 | CCS(=O)(=O)N1CCN(c2nc3nc(-c4c(C)cc(C(F)(F)F)cc4O)ccc3o2)C[C@@H]1C [compound 394] | 50 to 100 nM
16 | CCN1C[C@H](F)C[C@@H](Nc2nc3nc(-c4c(C)cc(C(F)(F)F)cc4O)ccc3o2)C1 [compound 397] | 100 to 500 nM
17 | Cc1cc(C(F)(F)F)cc(O)c1-c1ccc2oc(N[C@@H]3CCCN(C4CC4)C3)nc2n1 [compound 399] | < 50 nM
18 | Cc1cc(C(F)(F)F)cc(O)c1-c1ccc2oc(N[C@@H]3CCCN(C(C)C)C3)nc2n1 [compound 400] | < 50 nM
19 | Cc1cc(C(F)(F)F)cc(O)c1-c1ccc2oc(N[C@@H]3CCCN(CCO)C3)nc2n1 [compound 404] | < 50 nM
20 | Cc1cc(C(F)(F)F)cc(O)c1-c1ccc2oc(NC[C@@H](C)O)nc2n1 [compound 413] | 50 to 100 nM

Row | Compound | IC50
21 | Cc1cc(C(F)(F)F)cc(O)c1-c1ccc2nc(N3CCS(=O)(=O)CC3)nn2n1 [compound 422] | 100 to 500 nM
22 | Cc1cc(C(F)(F)F)cc(O)c1-c1ccc2nc(N3CCOCC3)nn2n1 [compound 423] | 100 to 500 nM
23 | Cc1cc(C(F)(F)F)cc(O)c1-c1cc(C)c2nc(N3CCOCC3)nn2n1 [compound 424] | < 50 nM
24 | Cc1cc(C(F)(F)F)cc(O)c1-c1ccn2nc(N3CCOCC3)nc2n1 [compound 426] | < 50 nM
25 | CCN1CCC[C@@H](Nc2nc3ccc(-c4c(C)cc(C(F)(F)F)cc4O)nn3n2)C1 [compound 439] | < 50 nM
26 | Cc1cc(C(F)(F)F)cc(O)c1-c1cc(C)n2nc(N3CCOCC3)nc2n1 [compound 440] | 50 to 100 nM
27 | CC(=O)NC[C@@H]1COCCN1c1nc2nc(-c3c(C)cc(C(F)(F)F)cc3O)cc(C)n2n1 [compound 441] | < 50 nM
28 | CC(=O)NC[C@@H]1COCCN1c1nc2c(C)cc(-c3c(C)cc(C(F)(F)F)cc3O)nn2n1 [compound 442] | < 50 nM
29 | Cc1cc(C(F)(F)F)cc(O)c1-c1cc(C)n2nc(N[C@@H]3CCCN(C)C3)nc2n1 [compound 443] | < 50 nM
30 | Cc1cc(C(F)(F)F)cc(O)c1-c1ccn2nc(N[C@@H]3CCCN(C)C3)nc2n1 [compound 444] | < 50 nM
31 | Cc1cc(C(F)(F)F)cc(O)c1-c1ccc2nc(N[C@@H]3CCCN(C)C3)nn2n1 [compound 445] | < 50 nM
32 | Cc1cc(C(F)(F)F)cc(O)c1-c1cc(C)c2nc(N[C@@H]3CCCN(C)C3)nn2n1 [compound 446] | < 50 nM
33 | CCN1CCC[C@@H](Nc2nc3c(C)cc(-c4c(C)cc(C(F)(F)F)cc4O)nn3n2)C1 [compound 447] | < 50 nM
34 | CCN1CCC[C@@H](Nc2nc3nc(-c4c(C)cc(C(F)(F)F)cc4O)ccn3n2)C1 [compound 448] | < 50 nM
35 | Cc1cc(C(F)(F)F)cc(O)c1-c1cc(C)n2nc(N[C@H]3CCCN(CCO)C3)nc2n1 [compound 460] | < 50 nM
36 | CCN1CCC[C@H](Nc2nc3nc(-c4c(C)cc(C(F)(F)F)cc4O)cc(C)n3n2)C1 [compound 462] | < 50 nM

test system: iodoacetic acid (MIA)-induced SD rat knee osteoarthritis model; assay: Efficacy on iodoacetic acid-induced SD rat knee osteoarthritis model; assay type: in vivo, SD rats; details: 30mg/kg orally once a day from Day 7 to Day 42
Protocol: Purpose: Evaluate the efficacy of MCC950 (Positive reference compound) and compound 111 of the present invention on iodoacetic acid (MIA)-induced SD rat knee osteoarthritis model. Experimental materials: Experimental male SD rats, 4 weeks old. Model induction began after the experimental animals were adapted to the animal environment for 7 days. Day 0, the rats were anesthetized, the hair around the left knee joint was removed, and the skin was disinfected. The left leg was flexed 90° to expose the patellar platform. The depression in the middle of the platform was touched by hand to find the femoral condyle, patella and ligament. The syringe needle was inserted from the bottom of the patella on both sides of the patellar ligament to the direction of the femoral condyle. When a clear sense of empty space was felt, 50µL of iodoacetic acid solution was injected. Day 7 Grouping was performed according to the width of the knee joint on the induced side. The groups were: normal control group (healthy control without modeling, 5% DMSO+10% Solutol+85% Saline), model blank control group (5% DMSO+10% Solutol+85% Saline), MCC950 30mg/kg, and compound 111 of the present invention 30mg/kg. Starting from Day 7, the normal control group and the model blank control group were given the solvent (5% DMSO+10% Solutol+85% Saline) orally once a day, and the other groups were given the corresponding compounds orally once a day until the end of the administration on Day 42. The knee joint width and body weight of the rats were measured once on Day 7, 14, 21, 28, 35, and 42. This experiment tested the efficacy of MCC950 (Positive compound) and compound 111 of the present invention on the SD rat knee osteoarthritis model induced by iodoacetic acid (MIA), see Figures 1 and 2.

Row | Compound | body weight of the rats
37 | CC(=O)N1CCOC[C@H]1CNc1nc2nc(-c3c(C)cc(C(F)(F)F)cc3O)ccc2o1 [Compound 111] | without affecting the body weight of the rats

same assay, conditions: 30mg/kg orally once a day from Day 7 to Day 42; compared with the model blank control group, 21 days to 42 days after modeling

Row | Compound | widening of the knee joints
38 | CC(=O)N1CCOC[C@H]1CNc1nc2nc(-c3c(C)cc(C(F)(F)F)cc3O)ccc2o1 [Compound 111] | significantly inhibit the widening of the knee joints
39 | CC(C)(O)c1coc(S(=O)(=O)NC(=O)Nc2c3c(cc4c2CCC4)CCC3)c1 [MCC950, reference compound] | significantly inhibit the widening of the knee joints
